# Test results published in US12672653B2, “Pest management” (priority 2017, dated 2026).
# Like-named read-outs stand apart in the source and are kept apart here.
# Key:
# Myzus persicae [1] = test: whole plant or invertebrate; conditions: foliar; for LC50: read-out: LC50 (95% CI's)
# Musca domestica = test: Knockdown and mortality of houseflies exposed to treated tiles; assay type: in vivo
# Protocol: Each formulation was filled into a hand-held pump sprayer. The treatments were applied to tiles from a distance of 20 cm. The tile was placed on a 0.5 m^2 grid and the entire 0.5 m^2 was sprayed, including the tile, at a rate of 50 mL/m^2. To ensure the correct volume was applied, the pump sprayer was weighed before and after spraying.
# The tiles were left for two hours post-treatment to allow the formulation to dry on the tile, before evaluation started.
# A control tile that was not treated with any formulation (untreated) was also used.
# Ten mixed sex Musca domestica houseflies were placed in a plastic petri dish using a powered aspirator. The petri dish placed over a treated or control tile surface. The petri dish was perforated for ventilation with small holes and a cotton wool plug soaked in sugar solution provided moisture and plugged the insect introduction hole in the petri dish.
# The houseflies were constantly exposed to a treated or untreated tile surface. The exposure took place at a temperature of 22±2° C. and about 50% relative humidity (RH).
# After 30 minutes exposure, a piece of paper was placed over the tile surface to prevent contact of the houseflies with the treated or untreated tile. The houseflies were held at 22±2° C. and about 50% RH for 24 hours.
# Housefly knockdown was noted 15 minutes and 30 minutes after beginning of exposure and 1, 2, 3 and 4 hours after initial exposure.
# The above experiment was repeated four times to give five replicates. No statistical analysis was done.
# [2] = test system: Dorsal root ganglion (DRG) cells; test: Whole-cell patch-clamp current-clamp recording of dorsal root ganglion cells (membrane potential, action potentials); assay type: cell-based, Sprague-Dawley rats
# Protocol: (§1) Dorsal root ganglion (DRG) cells were obtained from young adult male Sprague-Dawley rats weighing 220-250 g. The rats were housed in groups of 4 in an air conditioned room on a 12 hour light/dark cycle with food and water available ad libitum.
# (§2) Animals were humanely killed and the lower thoracic and upper lumbar region DRG removed and stored in chilled phosphate buffered saline (PBS). The DRG were carefully trimmed and then digested using 2 mg/mL trypsin (type XII-S) and 2 mg/mL collagenase (type XI), freshly made up in PBS, for 45-60 mins in a shaking water bath at 37° C. Subsequent to extensive washing with PBS and then plating medium (PM; 50:50 mix of DMEM/Hams F12, supplemented with 10% foetal bovine serum, 100 U/mL penicillin and 100 μg/mL streptomycin), careful trituration of the DRG was carried out using sterile fire polished glass pipettes of decreasing diameter and the cells were plated on coated glass coverslips (BD Biosciences, BD Biocoat, poly-D-Lysine), contained in 35 mm tissue culture dishes so that the cells could be easily transferred to the recording chamber mounted on an Olympus IX51 […] microscope for electrophysiological recording. Cells were incubated under standard tissue culture conditions (36° C. in a humidified atmosphere of 5% CO2, 95% air) and were used within 48-72 hours of plating.
# (§3) Whole-cell patch-clamp recordings were conducted at room temperature ([…]) using an Axopatch 200B amplifier (Axon Instruments Inc., USA) with 3-7 MΩ electrodes, depending on the patch success rate and recording quality. Data were filtered and digitized appropriately. Current-clamp recordings were performed with pipette solution of the following composition: 140 mM KCl, 0.5 mM EGTA, 5 mM HEPES, 3 mM Mg-ATP and 3 mM Na-GTP (pH 7.3), adjusted to 310 mOsm/L with glucose. The bathing solution contained: 140 mM NaCl, 3 mM KCl, 2 mM MgCl2, 2 mM CaCl2, and 10 mM HEPES (pH 7.3), adjusted to 315 mOsm/L with glucose. Passive membrane properties (e.g. resting membrane potential (Vm)) were monitored during the first few minutes from establishing whole-cell access and periodically during recording. Evoked potential recordings commenced 3-5 minutes after establishing whole-cell configuration.
# (§4) Flavesone test solutions were prepared fresh from a stock solution (96.7% w/w) on the day of recording. 100 μL of flavesone composition was mixed with 100 µL of Tween 80 and diluted to 10 mL in artificial cerebrospinal fluid (aCSF) to give a final flavesone concentration of 1%. The pH of the 1% solution was adjusted to 7.3 with 1M NaOH and diluted to 0.5% and 0.25% flavesone concentration with aCSF containing 1% Tween 80 immediately prior to use. Test compounds were applied using a DAD-16VC fast perfusion system (ALA Scientific Instruments, USA) and compared to the results gathered using control flow. The control was aSCF with 1% Tween 80.
# (§5) Comparison samples of permethrin were prepared as 100 μM permethrin in […] (DMSO).
# (§6) All analysis was conducted using Clampfit (MDS Analytical Technologies) and Excel (Microsoft) software. Statistical comparisons between groups were performed using the Student's t-test with P<0.05 taken to identify a significant difference.
# sodium channels = test: Sodium conductance in the DRG (voltage clamp recording); assay type: cell-based, Sprague-Dawley rats; conditions: for Normalised Na^+ Conductance Amplitude, Mean: Control = 100
# Protocol: as §1, §2, §3, §4, §5, §6
# Pyrethroids such as permethrin are known to be sodium channel modulators. Analysis of the effects of flavesone and permethrin on sodium conductance in the DRG was examined. […]
# Aedes aegypti L3 larvae = test: Mosquito larval topical dose-mortality assay (synergism); assay type: in vivo; conditions: for LC50: Aedes aegypti, topical
# Protocol: The efficacy of a flavesone formulation against mosquito larvae was investigated together with investigation of the potential for synergistic action of flavesone and one or more technical grade insecticides. Dose-mortality assays were performed to evaluate the toxicity of technical grade insecticide, here the synthetic pyrethroid (SP) permethrin at various concentrations (minimum five dose points) alone and co-administered with flavesone at single point dose was performed. Assays were conducted using L3 larvae of the Liverpool (SP susceptible) and Puerto Rico (SP resistant) strains of the yellow fever mosquito, Aedes aegypti maintained in continuous culture at Purdue University, US. Larvae were transferred to a 24 well tissue plate using a wide-bore plastic transfer pipette, 5 larvae per well. The water was gently removed from the well with a 1 mL pipette and an equivalent amount of ddH2O was added. The appropriate volume of test compound was added to each of the four replicate wells per treatment and the plate gently swirled to ensure uniform mixing. The plate was placed in a test or growth chamber under constant conditions of 22-25° C. and about 75-85% relative humidity on a 12 h light/12 hr dark cycle. Assays were scored for the phenotypic endpoint of death/paralysis at 24, 48 and 72 hours post exposure. Each assay incorporated a positive (flavesone) and negative (vehicle only) control, and minimum of four technical replicates per dose of test chemistry. The data reported here represent three biological replicates.
# Pilot assays were first employed to determine dose of flavesone (LC50, LC25 or LC10 dose as determined in previous dose-mortality tests) appropriate for synergism assays. […] The Synergistic Ratio (SR) for insecticide+flavesone combination is also shown and the synergistic action evaluated as per the published studies of Ahmed and Matsumura (2012, Journal of Medical Entomology 49(6):1405-10) and Ahmed and Vogel (2015, Acta Tropica 155:1-5).
# Myzus persicae [3] = conditions: 96 hours exposure; first bioassay dose-response curve
# [4] = 0.5% flavesone, Table 3, permethrin experiment
# [5] = voltage clamp recording configuration
smiles,measurement,setting,value
CC1(C)C(C=C(Cl)Cl)C1C(=O)OC(C#N)c1cccc(Oc2ccccc2)c1 (stereo not drawn) [Alpha-cypermethrin],mortality at 16 µg/mL,Myzus persicae [1]; 96 h,21.6%
same,mortality at 40 µg/mL,Myzus persicae [1]; 96 h,44.9%
same,mortality at 60 µg/mL,Myzus persicae [1]; 96 h,52.2%
same,mortality at 80 µg/mL,Myzus persicae [1]; 96 h,86.9%
same,LC50,Myzus persicae [1]; 96 h,44.6 µg/mL
"CC(C)C(=O)C1C(=O)C(C)(C)C(=O)C(C)(C)C1=O [Flavesone, 1-isobutyroyl-3,3,5,5-tetramethylcyclohexan-2,4,6-trione]",mortality,"Musca domestica; both rates (200 mg/mL & 100 mg/mL), 24 hours post initial exposure",100%
same,knockdown of houseflies,"Musca domestica; rates of 200 mg/mL & 100 mg/mL, after 15 minutes exposure",100%
same,effect on potassium channels,[2],activates one or more potassium channels
same,input resistance in DRG neurones,[2],reduced input resistance
same,Vm (mV) Mean,[2]; 0.25% flavesone,−71.51 mV
same,Δ Vm (mV) Mean,[2]; 0.25% flavesone,−7.80 mV
same,"Normalised No. of Action Potentials @ Vh −50 mV, Mean","[2]; 0.5% flavesone, Control = 100",74.0
same,Vm (mV) Mean,"[2]; 0.5% flavesone, Table 2",−73.54 mV
same,Δ Vm (mV) Mean,"[2]; 0.5% flavesone, Table 2",−18.15 mV
same,Vm (mV) Mean,[2]; [4],−80.56 mV
same,Δ Vm (mV) Mean,[2]; [4],−19.63 mV
same,"Normalised Action Potentials Amplitude, Mean","[2]; 0.5% flavesone, Table 5, Control = 100",77.72
same,"Normalised Action Potentials Amplitude, Mean","[2]; 0.5% flavesone, Table 6, Control = 100",90.17
same,Vm (mV) Mean,[2]; 1% flavesone,−83.75 mV
same,Δ Vm (mV) Mean,[2]; 1% flavesone,−29.82 mV
same,"Normalised No. of Action Potentials @ Vh −50 mV, Mean","[2]; 1% flavesone, Control = 100",65.8
same,"Normalised Action Potentials Amplitude, Mean","[2]; 1% flavesone, Table 5, Control = 100",28.35
same,"Normalised Action Potentials Amplitude, Mean","[2]; 1% flavesone, Table 6, Control = 100",91.50
same,number of action potentials,"[2]; flavesone, Table 4",slightly reduced
same,amplitude of the action potentials,"[2]; flavesone, Table 5",reduced
same,action potential threshold,"[2]; flavesone, Table 6",no significant effect
same,resting potential from current-voltage relations,[2]; in the presence of flavesone,about −84 mV
same,mean resting potential (Vm),[2]; reduced from about −62 mV by flavesone,about −84 mV
same,effect on sodium channels,sodium channels,no effect on sodium channels
same,area under the curve (AUC),"sodium channels; 0.5% flavesone, 1% flavesone versus control and wash",no significant difference
same,"Normalised Na^+ Conductance Amplitude, Mean",sodium channels; 0.5% flavesone,84.65
same,"Normalised Na^+ Conductance Amplitude, Mean",sodium channels; 1% flavesone,77.56
same,sodium conductance amplitude,"sodium channels; flavesone, Table 10",no significant effect
same,channel inactivation/deactivation,sodium channels; [5],no effect
same,reduction of sodium channel conductance,"sodium channels; voltage clamp recording configuration, not significantly different to control",approximately 20%
same,larval phenotype,Aedes aegypti L3 larvae; addition of flavesone,unambiguous “lethal” larval phenotype
same,LC15,Myzus persicae [3],1200 mg a.i./L
same,LC30,Myzus persicae [3],1800 mg a.i./L
same,mortality at 1200 µg/mL,Myzus persicae [1]; 96 h,10.9%
same,mortality at 1800 µg/mL,Myzus persicae [1]; 96 h,25.7%
same,LC50,Myzus persicae [1],2730 µg/mL
CC1(C)C(C=C(Cl)Cl)C1C(=O)OCc1cccc(Oc2ccccc2)c1 (stereo not drawn) [Permethrin],mortality,"Musca domestica; 1.25 mg/mL rate, 24 hours post-initial exposure",62%
same,knockdown of houseflies,"Musca domestica; 2.5 mg/mL and 1.25 mg/mL, any assessment time",< 100%
same,mortality,"Musca domestica; 2.5 mg/mL rate, 24 hours post-initial exposure",72%
same,knockdown of houseflies,"Musca domestica; both rates (2.5 and 1.25 mg/mL), 1-hour post initial exposure",94%
same,effect on potassium channels,[2],no effect on potassium channels
same,input resistance in DRG neurones,[2],no effect on the input resistance
same,effect on mean resting potential (Vm),[2]; 100 μM,no effect
same,Vm (mV) Mean,[2]; 100 μM permethrin,−61.48 mV
same,Δ Vm (mV) Mean,[2]; 100 μM permethrin,−08 mV
same,"DRG Normalised No. of Action Potentials @ Vh −50 mV, Mean","[2]; 100 μM permethrin, Control = 100",17.95
same,"Normalised Action Potentials Amplitude, Mean","[2]; 100 μM permethrin, Table 8, Control = 100",99.46
same,"Normalised Action Potentials Amplitude, Mean","[2]; 100 μM permethrin, Table 9, Control = 100",100.20
same,number of action potentials,"[2]; permethrin 100 μM, Table 7",significantly reduced
same,amplitude of the actions,"[2]; permethrin 100 μM, Table 8",no effect
same,action potential threshold,"[2]; permethrin 100 μM, Table 9",no effect
same,effect on sodium channels,sodium channels,had an effect on sodium channels
same,"Normalised Na^+ Conductance Amplitude, Mean","sodium channels; 100 μM permethrin, Table 11",103.47
same,"Normalised Na^+ Conductance Amplitude, Mean","sodium channels; 100 μM permethrin, Table 12",282.56
same,sodium conductance amplitude,"sodium channels; permethrin, Table 11",little effect
same,area under the curve (AUC),"sodium channels; permethrin, Table 12",significant increase
same,channel inactivation/deactivation,sodium channels; [5],significantly prolonged channel inactivation
same,LC50,"Aedes aegypti L3 larvae; 24 h, read-out: LC50 (ng/ml) (95% CL), Permethrin Dose-Mortality, L3 larvae, Liverpool (LVP, SP susceptible) strain, 24 hours post exposure, Permethrin alone",26.7 ng/mL
same,LC50,"Aedes aegypti L3 larvae; 24 h, read-out: LC50 (ng/ml) (95% CL), Permethrin Dose-Mortality, L3 larvae, Puerto Rico (PRS, SP resistant) strain, 24 hours post exposure, Permethrin alone",280 ng/mL
same,LC50,"Aedes aegypti L3 larvae; 48 h, read-out: LC50 (ng/ml) (95% CL), Permethrin Dose-Mortality, L3 larvae, Liverpool (LVP, SP susceptible) strain, 48 hours post exposure, Permethrin alone",24.3 ng/mL
same,LC50,"Aedes aegypti L3 larvae; 48 h, read-out: LC50 (ng/ml) (95% CL), Permethrin Dose-Mortality, L3 larvae, Puerto Rico (PRS, SP resistant) strain, 48 hours post exposure, Permethrin alone",231 ng/mL
same,level of resistance to Permethrin,Aedes aegypti L3 larvae; Puerto Rico strain larvae as compared to Liverpool strain larvae,approximately 10 fold
Cc1nc(N(C)C)nc(OC(=O)N(C)C)c1C [Pirimicarb],mortality at 10 µg/mL,Myzus persicae [1]; 96 h,20.3%
same,mortality at 18.5 µg/mL,Myzus persicae [1]; 96 h,36.1%
same,mortality at 23 µg/mL,Myzus persicae [1]; 96 h,82.8%
same,mortality at 30 µg/mL,Myzus persicae [1]; 96 h,76.2%
same,LC50,Myzus persicae [1]; 96 h,19.7 µg/mL
